The values below come from patent US20240383898A1, “PYRIDO RING COMPOUND, PREPARATION METHOD THEREFOR, INTERMEDIATE, COMPOSITION, AND APPLICATION” (YIYOU BIOTECH (SHANGHAI) CO., LTD, priority 2021, published 2024).

The target in one test is T1, JAK1 (Homo sapiens, UniProt P23458).
T1 construct: purchased Carna 08-114
The experiment in a line: In vitro activity test of JAK1 kinase (Caliper EZ Reader conversion assay). It counts as biochemical. To be noted: enzyme activity, 10 concentrations from 1000 nM, 3-fold dilution. An outline of the steps: (§1)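 JAK1 or JAK2 pre-incubated with compound (top 1000 nM, 3-fold, 10 points, duplicate) for 10 min at room temperature, then ATP plus substrate added. Substrate conversion read by mobility-shift on Caliper EZ Reader after stop solution. Inhibition normalized to no-enzyme and DMSO controls; IC50 from variable-slope four-parameter fit.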

A further test concerns the target T2, JAK2 (Homo sapiens, UniProt O60674).
T2 construct: purchased Carna 08-045
The experiment in a line: In vitro activity test of JAK2 kinase (Caliper EZ Reader conversion assay). In kind it is biochemical. The conditions noted are these: enzyme activity, 10 concentrations from 1000 nM, 3-fold dilution. An outline of the steps:
as §1

T1 sequence (P23458 whole entry, species assumed): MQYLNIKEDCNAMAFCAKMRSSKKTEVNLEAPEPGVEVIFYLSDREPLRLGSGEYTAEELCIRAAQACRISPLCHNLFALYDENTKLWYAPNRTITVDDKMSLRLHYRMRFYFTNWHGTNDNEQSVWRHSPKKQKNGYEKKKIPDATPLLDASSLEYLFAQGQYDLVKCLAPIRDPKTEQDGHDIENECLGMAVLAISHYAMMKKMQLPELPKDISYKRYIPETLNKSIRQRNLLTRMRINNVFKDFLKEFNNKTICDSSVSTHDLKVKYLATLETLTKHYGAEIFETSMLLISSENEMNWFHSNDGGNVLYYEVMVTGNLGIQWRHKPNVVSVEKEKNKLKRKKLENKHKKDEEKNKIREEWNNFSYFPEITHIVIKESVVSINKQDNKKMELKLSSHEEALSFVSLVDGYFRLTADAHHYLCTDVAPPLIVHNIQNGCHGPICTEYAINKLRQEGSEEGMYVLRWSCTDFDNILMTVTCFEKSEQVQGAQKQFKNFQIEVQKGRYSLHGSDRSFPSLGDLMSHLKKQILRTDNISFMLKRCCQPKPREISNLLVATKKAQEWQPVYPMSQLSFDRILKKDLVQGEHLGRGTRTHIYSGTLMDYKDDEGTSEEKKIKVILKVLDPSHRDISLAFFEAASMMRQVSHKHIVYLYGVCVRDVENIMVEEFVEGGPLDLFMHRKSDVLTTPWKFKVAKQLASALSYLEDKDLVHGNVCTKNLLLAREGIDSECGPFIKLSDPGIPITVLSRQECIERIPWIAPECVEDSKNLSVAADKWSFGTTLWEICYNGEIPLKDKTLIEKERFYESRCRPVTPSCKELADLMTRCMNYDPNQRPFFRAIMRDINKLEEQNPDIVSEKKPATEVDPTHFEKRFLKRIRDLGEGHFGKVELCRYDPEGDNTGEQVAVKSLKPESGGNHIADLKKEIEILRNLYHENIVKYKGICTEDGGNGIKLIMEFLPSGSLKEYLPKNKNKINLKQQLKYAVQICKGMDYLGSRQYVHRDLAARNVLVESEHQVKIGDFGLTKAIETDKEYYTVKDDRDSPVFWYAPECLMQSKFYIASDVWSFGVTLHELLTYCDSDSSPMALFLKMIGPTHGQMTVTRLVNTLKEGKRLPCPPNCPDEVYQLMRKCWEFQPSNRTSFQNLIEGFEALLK
T2 sequence (O60674 whole entry, species assumed): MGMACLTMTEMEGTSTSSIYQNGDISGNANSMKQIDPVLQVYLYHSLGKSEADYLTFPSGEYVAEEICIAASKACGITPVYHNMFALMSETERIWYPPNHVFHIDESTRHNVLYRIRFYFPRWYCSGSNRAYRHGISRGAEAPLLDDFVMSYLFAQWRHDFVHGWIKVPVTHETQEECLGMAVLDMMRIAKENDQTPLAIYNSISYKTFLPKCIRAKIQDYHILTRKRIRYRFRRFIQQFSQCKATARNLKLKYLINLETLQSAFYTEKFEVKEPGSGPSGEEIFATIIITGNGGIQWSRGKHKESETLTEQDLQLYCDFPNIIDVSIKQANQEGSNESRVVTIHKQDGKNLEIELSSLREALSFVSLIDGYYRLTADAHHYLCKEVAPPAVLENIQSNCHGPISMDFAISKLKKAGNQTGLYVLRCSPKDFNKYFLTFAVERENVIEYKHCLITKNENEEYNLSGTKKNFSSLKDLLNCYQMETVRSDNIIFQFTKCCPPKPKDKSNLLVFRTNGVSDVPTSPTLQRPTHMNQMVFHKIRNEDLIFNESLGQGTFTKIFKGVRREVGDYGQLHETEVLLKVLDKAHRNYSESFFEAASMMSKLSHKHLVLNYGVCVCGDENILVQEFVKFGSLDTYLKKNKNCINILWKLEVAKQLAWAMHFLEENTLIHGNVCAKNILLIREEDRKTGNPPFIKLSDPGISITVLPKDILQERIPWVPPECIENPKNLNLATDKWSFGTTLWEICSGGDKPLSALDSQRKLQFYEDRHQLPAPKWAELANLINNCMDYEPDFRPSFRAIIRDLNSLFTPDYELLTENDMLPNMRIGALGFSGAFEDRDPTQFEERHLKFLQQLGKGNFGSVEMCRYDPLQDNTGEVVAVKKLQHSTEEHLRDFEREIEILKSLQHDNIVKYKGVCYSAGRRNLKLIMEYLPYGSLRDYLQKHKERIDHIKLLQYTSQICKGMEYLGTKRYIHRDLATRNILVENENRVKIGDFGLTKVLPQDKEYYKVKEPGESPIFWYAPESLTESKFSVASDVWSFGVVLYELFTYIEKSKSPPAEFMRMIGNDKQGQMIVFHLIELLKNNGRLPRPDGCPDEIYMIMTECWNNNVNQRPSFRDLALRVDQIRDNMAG

In the case of `N#CCCCn1cc(-n2cnc3cnc4[nH]ccc4c32)cn1` [LXS103, 4-(4-(imidazo[4,5-d]pyrrolo[2,3-b]pyridin-1(6H)-yl)-1H-pyrazol-1-yl)butanenitrile], the IC50 at JAK1 and at JAK2 was 10 to 100 nM in each case.
As to `Cc1ccc(-c2nc3cnc4[nH]ccc4c3n2-c2cnn(CCCC#N)c2)o1` [LXS104, 4-(4-(2-(5-methylfuran-2-yl)imidazo[4,5-d]pyrrolo[2,3-b]pyridin-1(6H)-yl)-1H-pyrazol-1-yl)butanenitrile], the IC50 against JAK1 and at JAK2 was 10 to 100 nM throughout.
As for `Cc1ccc(-c2nc3cnc4[nH]ccc4c3n2-c2cnn(CCCC#N)c2)s1` [LXS105], the IC50 lay in the range of 100 to 1000 nM against JAK1 and 10 to 100 nM on JAK2.
`N#CCCn1cc(-n2c(-c3cccs3)nc3cnc4[nH]ccc4c32)cn1` [LXS106, 3-(4-(2-(Thiophen-2-yl)imidazo[4,5-d]pyrrolo[2,3-b]pyridin-1(6H)-yl)-1H-pyrazol-1-yl)propanenitrile]: the values for the IC50 against JAK1 and at JAK2 were 100 to 1000 nM and 10 to 100 nM, respectively.
In the case of `N#CCCCn1cc(-n2c(C3CCC3)nc3cnc4[nH]ccc4c32)cn1` [LXS107, 4-(4-(2-cyclobutylimidazo[4,5-d]pyrrolo[2,3-b]pyridin-1(6H)-yl)-1H-pyrazol-1-yl)butanenitrile], the results for the IC50 against JAK1 and on JAK2 were 100 to 1000 nM and 10 to 100 nM, respectively.
On to `N#CCCCn1cc(-n2c(C3CC3)nc3cnc4[nH]ccc4c32)cn1` [LXS108, 4-(4-(2-cyclopropylimidazo[4,5-d]pyrrolo[2,3-b]pyridin-1(6H)-yl)-1H-pyrazol-1-yl)butanenitrile], for which the IC50 against JAK1 lay within 100 to 1000 nM; at JAK2, 10 to 100 nM.
Turning to `N#CCN1CCC(n2c(-c3cccc(O)c3)nc3cnc4[nH]ccc4c32)C1` (centres unmarked) [LXSS3, 2-(3-(2-(3-Hydroxyphenyl)imidazo[4,5-d]pyrrolo[2,3-b]pyridin-1(6H)-yl)pyrrolidin-1-yl)acetonitrile], the IC50 on JAK1 and against JAK2 was 10 to 100 nM in each case.
